Measurements published in patent US8410170B2, “Use of isothiocyanates compounds in treating prostatic diseases and skin cancer” (Wuxi JC Pharmaceutical Technology Co., Ltd., priority 2005, dated 2013).
Where two headings read alike, the source gives them in different places.

How the values were obtained:
[1] = test system: B16 mouse melanoma cells; assay: MTT cell growth inhibition, B16 melanoma; format: cell-based
Experimental: B16 mouse melanoma cells at exponential growth phase were digested by 0.25% trypsin, adjusted to the density of 3˜5×10^4/mL by adding the above working RPMI 1640 medium, sed into 96-well dishes at 150 μl per well, under normal culture conditions mentioned above. […] Equal volume of the working RPMI 1640 medium was added into the wells of the control group. Each group had four wells. After incubation, discarded the supernatant, added 150 μl D-Hanks per well, washed, discarded the supernatant. After adding 100 μl MTT (0.5 mg/mL), incubated for another 4 hrs. Discarded the supernatant, added 150 μl DMSO, kept at 37° C. for 10 mins. Absorbance was measured at wavelength of 570 nm.

[2] = test system: xenograft B16 mouse tumor; settings: 15 days
Experimental: The B16 mouse melanoma cells at exponential growth phase were suspended in PBS. […] Adjusted the suspension to a cell concentration of approximately 1×10^7/ml. 0.2 ml of the suspension were transplanted subcutaneously into right axillary subcutis for passaging.
Under sterile condition the xenograft B16 mouse tumor in mice was stripped from axillary subcutis. After cutting by scissors, the tumor with saline (1:3) was ground in a glass homogenizer. Monocell suspension was made with saline. […] Then adjusted the suspension to a cell density of approximately 1×10^7/ml with saline. 0.2 ml were transplanted subcutaneously into right axillary subcutis of each mouse. After transplanting, randomly divided the mouse into 5 groups, 12 each.
Tumors were taken out, sizes and weights were measured, and the percent of inhibitions were calculated.

## S=C=NCCc1ccccc1 [PEITC, phenethyl isothiocyanate]
[1]; B16 mouse melanoma cell line
  IC50: 10 to 20 µM
[1]; Mus musculus, B16, 48 h, 2.5 μmol/L, 48 h, B16
  inhibition at 2.5 µM: 14.5%
[1]; Mus musculus, B16, 48 h, 5.0 μmol/L, 48 h, B16
  inhibition at 5 µM: 27.9%
[1]; Mus musculus, B16, 48 h, 7.5 μmol/L, 48 h, B16
  inhibition at 7.5 µM: 36.7%
[1]; Mus musculus, B16, 48 h, 10.0 μmol/L, 48 h, B16
  inhibition at 10 µM: 49.2%
[1]; Mus musculus, B16, 48 h, 12.5 μmol/L, 48 h, B16
  inhibition at 12.5 µM: 58.4%
[1]; Mus musculus, B16, 48 h, 15.0 μmol/L, 48 h, B16
  inhibition at 15 µM: 63.7%
[1]; Mus musculus, B16, 48 h, 20.0 μmol/L, 48 h, B16
  inhibition at 20 µM: 77.3%
[1]; Mus musculus, B16, 48 h, 30.0 μmol/L, 48 h, B16
  inhibition at 30 µM: 89.6%
[1]; Mus musculus, B16, 48 h, 40.0 μmol/L, 48 h, B16
  inhibition at 40 µM: > 96%
[2]; PEITC 70 mg/kg/d gavage (Example 13-16)
  Changes in Body Weight: 9.78 ± 4.28 g
[2]; PEITC 70 mg/kg/d gavage
  Average of Tumor Weight: 1.23 ± 0.68 g
  Inhibition: 39.23%
[2]; PEITC 120 mg/kg/d gavage (Example 13-16)
  Changes in Body Weight: 6.34 ± 3.42 g
[2]; PEITC 120 mg/kg/d gavage
  Average of Tumor Weight: 0.91 ± 0.23**∇ g
  Inhibition: 58.54%
